One assay has as its system Nucleic Acid. Kind of assay: Protection against ferrous and hydrogen peroxide-induced single strand breakage of pBR322 DNA at 50 uM after 30 mins using ethium bromide staining. The following applies: Escherichia coli.
Assay [1] can be described thus: Antioxidant activity against ferrous and hydrogen peroxide-induced hydroxyl radical assessed inhibition of radical-mediated 2-deoxyribose damage at 100 uM after 45 mins. Format: functional.
Assay [2] in a line: Antioxidant activity assessed as ABTS radical scavenging activity after 6 mins by cation decolorization assay. Format: functional.
The nature of assay [3]: Antioxidant activity assessed as superoxide radical anion scavenging activity after 30 mins by xanthine/xanthine oxidase method. Format: functional.
Assay [4] concerns Radical scavenging activity. Briefly: Antioxidant activity assessed as DPPH radical scavenging activity after 30 mins. Type of assay: functional. On the technique in general: Loss of DPPH colour is used to gauge radical scavenging.

Calls of active or inactive are those of the source. No cut-off for these calls is given here.

Take `CC(=O)Oc1c(O)c(-c2ccc(O)cc2)c(OC(C)=O)c(O)c1-c1ccc(O)cc1`: the result (with Nucleic Acid; in assay [1]) was Active. Also, the figures for the IC50 in assay [2], in assay [3] and in assay [4] were 8.77 µM, more than 500 µM and more than 500 µM, respectively.
On to `CC(=O)N(O)CCCCCNC(=O)CCC(=O)N(O)CCCCCNC(=O)CCC(=O)N(O)CCCCCN`, for which the result in the assay on Nucleic Acid was Active.
For `COc1ccc(O)c(C(C)(C)C)c1.COc1ccc(O)cc1C(C)(C)C` [BUTYLATED HYDROXYANISOLE], the outcome in the assay on Nucleic Acid was inactive. The IC50 in assay [2] was 10.7 µM; in assay [3], more than 500 µM; in assay [4], 83 µM.
On to `O=C(O)/C=C/c1ccc(O)c(O)c1` [CAFFEIC ACID], for which the half-inhibitory concentration (IC50) worked out at 5.37 µM in assay [2], 58 µM in assay [3] and 21.1 µM in assay [4].
In the case of `CC(=O)Oc1c(OC(=O)C[C@@H](C)O)c(-c2ccc(O)cc2)c(OC(=O)CCc2ccccc2)c(OC(=O)C[C@@H](C)O)c1-c1ccc(O)cc1` [CURTISIAN E], the outcome (in the assay on Nucleic Acid; in assay [1]) was Active. For the same compound, the IC50 in assay [2], in assay [3] and in assay [4] was more than 500 µM in each case.
Take `CC(=O)O[C@H](C)CC(=O)Oc1c(O)c(-c2ccc(O)cc2)c(OC(=O)C[C@@H](C)O)c(O)c1-c1ccc(O)cc1` [CURTISIAN I]: the result in the assay with Nucleic Acid was Active. In addition, the IC50 in assay [2] is 60.4 µM; in assay [3] it was more than 500 µM; in assay [4], more than 500 µM.
Consider `CC(=O)O[C@H](C)CC(=O)Oc1c(O)c(-c2ccc(O)cc2)c(OC(=O)CCc2ccccc2)c(O)c1-c1ccc(O)cc1` [CURTISIAN J], for which, in the assay with Nucleic Acid, the outcome was Active. The concentration for half-maximal inhibition (IC50) in assay [2] is 13.5 µM; in assay [3], more than 500 µM; in assay [4], more than 500 µM.
In the case of `C[C@@H](O)CC(=O)Oc1c(O)c(-c2ccc(O)cc2)c(OC(=O)CCc2ccccc2)c(O)c1-c1ccc(O)cc1` [CURTISIAN K], the result (in the assay on Nucleic Acid; in assay [1]) was Active. The IC50 in assay [2] was 11.3 µM; in assay [3], more than 500 µM; in assay [4] it was more than 500 µM.
With `CC(=O)Oc1c(O)c(-c2ccc(O)cc2)c(OC(=O)C[C@@H](C)O)c(O)c1-c1ccc(O)cc1` [CURTISIAN L], in the assay on Nucleic Acid, the result was Active. The IC50 is 18.6 µM in assay [2], more than 500 µM in assay [3] and more than 500 µM in assay [4].
Turning to `CC(=O)O[C@H](C)CC(=O)Oc1c(O)c(-c2ccc(O)cc2)c(OC(=O)C[C@@H](C)OC(C)=O)c(O)c1-c1ccc(O)cc1` [CURTISIAN M], the result (in the assay on Nucleic Acid; in assay [1]) was Active. The IC50 was 8.15 µM in assay [2], more than 500 µM in assay [3] and more than 500 µM in assay [4].
For `CC(=O)Oc1c(O)c(-c2ccc(O)cc2)c(OC(=O)C[C@@H](C)OC(C)=O)c(O)c1-c1ccc(O)cc1` [CURTISIAN N], the outcome (in the assay with Nucleic Acid; in assay [1]) was Active. Besides, the IC50 in assay [2] is 5.5 µM; in assay [3] it was more than 500 µM; in assay [4], more than 500 µM.
In the case of `CCCC(=O)Oc1c(O)c(-c2ccc(O)cc2)c(OC(C)=O)c(O)c1-c1ccc(O)cc1` [CURTISIAN O], the result (in the assay with Nucleic Acid; in assay [1]) was Active. Also, the 50% inhibitory concentration (IC50) was 7.11 µM in assay [2], more than 500 µM in assay [3] and more than 500 µM in assay [4].
`CC(=O)Oc1c(O)c(-c2ccc(O)cc2)c(OC(=O)CCc2ccccc2)c(O)c1-c1ccc(O)cc1` [CURTISIAN P]: the result with Nucleic Acid was Active. For the same compound, the figures for the half-inhibitory concentration (IC50) in assay [2], in assay [3] and in assay [4] were 6.44 µM, more than 500 µM and more than 500 µM, respectively.
For `O=C(CCc1ccccc1)Oc1c(O)c(-c2ccc(O)cc2)c(OC(=O)CCc2ccccc2)c(O)c1-c1ccc(O)cc1` [CURTISIAN R], the outcome in the assay with Nucleic Acid was Active. For the same compound, the results for the IC50 in assay [2], in assay [3] and in assay [4] were 8.02 µM, more than 500 µM and more than 500 µM, respectively.
Take `CCCC(=O)Oc1c(O)c(-c2ccc(O)cc2)c(OC(=O)CCc2ccccc2)c(O)c1-c1ccc(O)cc1` [CURTISIAN S]: the result in the assay with Nucleic Acid was Active. The results for the IC50 in assay [2], in assay [3] and in assay [4] were 8.16 µM, more than 500 µM and more than 500 µM, respectively.
With `CC(=O)O[C@H](C)CC(=O)Oc1c(O)c(-c2ccc(O)cc2)c(OC(=O)c2ccccc2)c(O)c1-c1ccc(O)cc1` [CURTISIAN T], in the assay with Nucleic Acid, the outcome was Active. In addition, the IC50 in assay [2] is 8.43 µM; in assay [3], more than 500 µM; in assay [4], more than 500 µM.
On to `CC(=O)Oc1c(OC(=O)C[C@@H](C)O)c(-c2ccc(O)cc2)c(OC(C)=O)c(OC(=O)C[C@@H](C)O)c1-c1ccc(O)cc1` [CURTISIAN U], for which, in the assay with Nucleic Acid, the outcome was Active. Moreover, the IC50 in assay [2], in assay [3] and in assay [4] was more than 500 µM each time.
With `CC(=O)Oc1c(OC(=O)CCc2ccccc2)c(-c2ccc(O)cc2)c(OC(=O)C[C@@H](C)O)c(OC(=O)C[C@@H](C)O)c1-c1ccc(O)cc1` [CURTISIAN V], in the assay on Nucleic Acid, the result was Active. For the same compound, the IC50 in assay [2], in assay [3] and in assay [4] was more than 500 µM throughout.
`Cc1c(C)c2c(c(C)c1O)CCC(C)(C(=O)O)O2` (stereo not drawn) [TROLOX]: in the assay on Nucleic Acid, the outcome was Active. The 50% inhibitory concentration (IC50) was 7.91 µM in assay [2], more than 500 µM in assay [3] and 33 µM in assay [4].

The IC50 is the concentration that inhibits the measured activity by half.

The values are drawn from ChEMBL document CHEMBL1152939, “p-Terphenyls from the fruiting bodies of Paxillus curtisii and their antioxidant properties” (Bioorg Med Chem, 2009).
